Measurements taken from patent US8268635B2, “Methods of identifying agents that selectively activate p38 and/or NKkB signaling” (priority 2006, dated 2012).
Where no end group is shown, it is not given here.

Assays:
[1] = system: JNK; assay: JNK activation in neutrophils in suspension; type: cell-based, human; conditions: 15 min; TNF 100 U/ml, TNF70-80 10 μM, anisomycin 2.5 μg/ml
Protocol: (§1) The cells were lysed and the lysate assessed by western blot analysis for the level of dual-phosphorylated ERK1/ERK2 (top panel) and ERK2 protein (bottom panel). […] The level of myelin basic protein phosphorylation was quantitated by an Instant Imager.
Neutrophils were prepared from peripheral blood of healthy donors by a rapid single-step technique (Kumaratilake, L. M., Rathjen, D. A., Mack, P., Widmer, F., Prasertsiriroj, V., and Ferrante, A. (1995) J. Clin. Invest. 95: 2315-2323) using Hypaque-Ficoll and according to the institution's guidelines on human ethics. […]
(§2) KHS (hereon referred to as “GCKR”) activity was assayed as described previously using myelin basic protein as a substrate (Shi, C. S., Leonardi, A., Kyriakis, J., Siebenlist, U., and Kerhl, J. H. (1999) J. Immunol. 163: 3279-3285). ASK-1 activation was determined in immunoprecipitates of ASK-1 by autophosphorylation (Kyriakis, J. M., and Auruch, J. (2001) Physiol. Rev. 81: 807-869). p38 and ERK activities were determined as described using myelin basic protein as a substrate (Hii, C. S., Huang, Z. H., Bilney, A., Costabile, M., Murray, A. W., Rathjen, D. A., Der, C. J., and Ferrante, A. (1998) J. Biol. Chem. 273: 19277-19282). […]

[2] = system: ERK; assay: ERK activation in adherent neutrophils; type: cell-based, human; conditions: neutrophils pre-adhered to plasma-coated dishes; 15 min; TNF 1000 U/ml, TNF70-80 10 μM
Protocol: Neutrophils were prepared from peripheral blood of healthy donors by a rapid single-step technique (Kumaratilake, L. M., Rathjen, D. A., Mack, P., Widmer, F., Prasertsiriroj, V., and Ferrante, A. (1995) J. Clin. Invest. 95: 2315-2323) using Hypaque-Ficoll and according to the institution's guidelines on human ethics. […] These were either used as cells in suspension or as adhered neutrophils by adding the cells to plasma coated plates as previously described (Powell, W., Gravel, S., Halwani, F., Hii, C. S., Huang, Z. H., Tan, A. M., and Ferrante, A. (1997) J. Immunol. 159: 2952-2959). […]
as §2

[3] = system: p38; assay: p38 kinase activity in human neutrophils; type: cell-based; conditions: 5 min; TNF 100 or 1000 U/ml, TNF70-80 10-50 μM
Protocol: as §1
Neutrophils were prepared from peripheral blood of healthy donors by a rapid single-step technique (Kumaratilake, L. M., Rathjen, D. A., Mack, P., Widmer, F., Prasertsiriroj, V., and Ferrante, A. (1995) J. Clin. Invest. 95: 2315-2323) using Hypaque-Ficoll and according to the institution's guidelines on human ethics. […] These were either used as cells in suspension or as adhered neutrophils by adding the cells to plasma coated plates as previously described (Powell, W., Gravel, S., Halwani, F., Hii, C. S., Huang, Z. H., Tan, A. M., and Ferrante, A. (1997) J. Immunol. 159: 2952-2959).
KHS (hereon referred to as “GCKR”) activity was assayed as described previously using myelin basic protein as a substrate (Shi, C. S., Leonardi, A., Kyriakis, J., Siebenlist, U., and Kerhl, J. H. (1999) J. Immunol. 163: 3279-3285). ASK-1 activation was determined in immunoprecipitates of ASK-1 by autophosphorylation (Kyriakis, J. M., and Auruch, J. (2001) Physiol. Rev. 81: 807-869). p38 and ERK activities were determined as described using myelin basic protein as a substrate (Hii, C. S., Huang, Z. H., Bilney, A., Costabile, M., Murray, A. W., Rathjen, D. A., Der, C. J., and Ferrante, A. (1998) J. Biol. Chem. 273: 19277-19282). […] A solid phase assay using glutathione-S-transferase (GST)-conjugated-jun (1-79) was employed to assay JNK activity (Hii, C. S., Huang, Z. H., Bilney, A., Costabile, M., Murray, A. W., Rathjen, D. A., Der, C. J., and Ferrante, A. (1998) J. Biol. Chem. 273: 19277-19282). Phosphorylated ASK-1, myelin basic protein and GST-jun (1-79) were fractionated on 8, 16 and 12% SDS polyacrylamide gels, respectively, and the bands were detected and radioactivity determined using an Instant Imager (Packard Instruments, Canberra, Australia).
The level of myelin basic protein phosphorylation was quantitated by an Instant Imager.

[4] = system: neutrophils; assay: Neutrophil superoxide production, lucigenin chemiluminescence assay; type: cell-based, human; conditions: agent alone as stimulus
Protocol: Neutrophils were pre-treated with varying concentrations of SB203580 for 30 min and then exposed to 10 μM TNF70-80. The lucigenin enhanced chemiluminescence produced by the cells was measured in a luminometer. The peak initial rate of chemiluminescence produced is presented as the mean±sem of six experiments. The response in the presence of the inhibitor is expressed as a % of the control response.
Neutrophil superoxide production was measured as the chemiluminescence generated by the reduction of lucigenin, essentially as described previously (Kumaratilake, L. M., Rathjen, D. A., Mack, P., Widmer, F., Prasertsiriroj, V., and Ferrante, A. (1995) J. Clin. Invest. 95: 2315-2323). Briefly, to 1×10^6 neutrophils in 400 μl of HBSS was added 100 μl of stimulus and 500 μl of 250 μg/ml of lucigenin. The chemiluminescence was measured in a luminometer (Berthold Technologies, Bad Wildbad, Germany) over a 20 min period and the data imported into Microsoft Excel (Redmond, Wash.).
The cells were placed in a water-jacketed luminometer chamber (37° C.) (Autolumat Plus Model LB 953, Berthold Technologies, Bundoora, Australia) and the resulting light output recorded in millivolts (mV) at 10 second intervals. The data was analysed with Multiuser software (Berthold Tubemaster, Bundoora, Australia). The results are expressed as peak superoxide produced.
Various concentrations of TNFR1 fragment or diluent were added to neutrophils (106 in 100 μl HBSS) and incubated at 37° C. for 30 min 5% CO2 in air. After incubation 500 μl of lucigenin (250 μM, final), 100 μl of TNF70-80 (100 μg) were added and the final volume was adjusted to 1 ml.
Superoxide production by human neutrophils was measured by the reduction of the fluorescent lucigenin, (9,9′-bis(N-methyl-acridinium nitrate) (Sigma Chemical Company). This provides a direct and specific measure of agonist-induced superoxide production. Lucigenin-dependant chemiluminescence was measured as described previously Gyllenhannar H. (1987) J. Immunol. Methods 97:209-213. Briefly, 50 μl of 100 mg/ml of peptide or diluent and 250 ml of lucigenin was added to neutrophils (5×10^5 in 50 μl HBSS). The cells were placed in a water-jacketed luminometer chamber (37° C.) (Autolumat Plus Model LB 953, Berthold Technologies, Bundoora, Australia) and the resulting light output recorded in millivolts (mV) at 10 second intervals. The data was analysed with Multi-user software (Berthold Tubemaster, Bundoora, Australia).
Data are presented as mean±SEM of 3 experiments.

## PSTHVLITHTI-OH [TNF70-80]
[1]
  activity/phosphorylation of JNK in neutrophils in suspension: neither TNF nor TNF70-80 stimulated the activity of either JNK or ERK
[2]
  ERK activation in adherent neutrophils: failed to stimulate the activation of the ERKs
[3]
  activity of p38 in neutrophils in suspension: enhanced the activity of p38
[4]
  stimulation of neutrophil respiratory burst / superoxide production: stimulated a respiratory burst
